We go through 18 compounds from patent US11596639B2, “Substituted indole Mcl-1 inhibitors” (Vanderbilt University, priority 2016, dated 2023).

One assay deals with Mcl-1 (Homo sapiens (Human), UniProt Q07820). Description: Fluorescence polarization anisotropy (FPA) competition assay, FITC-Bak or FITC-Bim BH3 peptide. Particulars: read-out: Ki for Inhibition of Mcl-1 by FPA assay. It counts as binding.
Assay [1] deals with H929 human cancer cell lines. Nature of the assay: Cellular viability / proliferation (Cell TiterGlo, 72 h). The class given is cell-based. The method in brief:
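H929 cells plated at 1,000/well in 10% FBS medium received a 2-fold serial compound dilution (top 50 μM, DMSO <1%) 24 h later. After 72 h, viability was read by CellTiter-Glo luminescence. IC50 came from a four-parameter fit.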
In general terms: In ATP-based viability assays light output follows the ATP content of the culture.

[2] abbreviates: Homo sapiens, NCI-H929, 72 h, read-out: GI50 on cellular proliferation of H929 human cancer cell lines, H929 cells, 72 h, Cell TiterGlo, 10% FBS.

Molecules are shown by their SMILES. pKi: −log10 of the molar value. Where two headings read alike, the source gives them in different places.

Chain of Mcl-1 (Q07820 172-327): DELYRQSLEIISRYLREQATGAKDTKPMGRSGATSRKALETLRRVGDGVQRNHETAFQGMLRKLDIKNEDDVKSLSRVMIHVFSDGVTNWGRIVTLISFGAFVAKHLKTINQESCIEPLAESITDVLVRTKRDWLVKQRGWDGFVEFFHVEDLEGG

By pKi is commonly meant −log10 of the Ki, conventionally taken in molar units. In the case of `Cc1cc(OCCCc2c3n(c4c(-c5c(C)nn(C)c5C)c(Cl)ccc24)[C@H](C)CN(c2cn(C)c4c(-c5nnnn5C)cccc24)C3=O)cc(C)c1Cl` [Example 372, (R)-7-Chloro-10-(3-(4-chloro-3,5-dimethylphenoxy)propyl)-4-methyl-2-(1-methyl-7-(1-methyl-1H-tetrazol-5-yl)-1H-indol-3-yl)-6-(1,3,5-trimethyl-1H-pyrazol-4-yl)-3,4-dihydropyrazino[1,2-a]indol-1(2H)-one], the pKi at Mcl-1 was 8.92. Also, in assay [1] (setting [2]), the GI50 amounted to 2000 nM.

In the case of `Cc1cc(OCCCc2c3n(c4c(-c5c(C)nc(CN6CCCC6)nc5C)c(Cl)ccc24)CCCN(c2cn(C)c4ccc(C(=O)O)cc24)C3=O)cc(C)c1Cl` [Example 373], the pKi at Mcl-1 is 8.80. Moreover, the GI50 in assay [1] (H929 cells, 72 h, Cell TiterGlo, 10% FBS, read-out: GI50 on cellular proliferation of H929 human cancer cell lines) came to 1200 nM.

Consider `Cc1cc(OCCCc2c3n(c4c(-c5c(C)nn(C)c5C)c(Cl)ccc24)[C@H](C)CN(c2cccc4cc(C(=O)O)n(CC5CCO5)c24)C3=O)cc(C)c1Cl` (stereo partly drawn) [Example 374, 7-((R)-7-Chloro-10-(3-(4-chloro-3,5-dimethylphenoxy)propyl)-4-methyl-1-oxo-6-(1,3,5-trimethyl-1H-pyrazol-4-yl)-3,4-dihydropyrazino[1,2-a]indol-2(1H)-yl)-1-(oxetan-2-ylmethyl)-1H-indole-2-carboxylic acid], for which the pKi at Mcl-1 was 8.43. Also, the GI50 in assay [1] (setting [2]) worked out at 1500 nM.

On to `Cc1cc(OCCCc2c3n(c4c(-c5c(C)nn(C)c5C)c(Cl)ccc24)[C@H](C)CN(c2nccc4cc(C(N)=O)ccc24)C3=O)cc(C)c1Cl` [Example 375, (R)-1-(7-Chloro-10-(3-(4-chloro-3,5-dimethylphenoxy)propyl)-4-methyl-1-oxo-6-(1,3,5-trimethyl-1H-pyrazol-4-yl)-3,4-dihydropyrazino[1,2-a]indol-2(1H)-yl)isoquinoline-6-carboxamide], for which the pKi on Mcl-1 is 8.00. In assay [1] (setting [2]), the GI50 came to 2500 nM.

With `Cc1cc(N2C[C@@H](C)n3c(c(CCCOc4cc(C)c(Cl)c(C)c4)c4ccc(Cl)c(-c5c(C)ncnc5C)c43)C2=O)c2c(c1)cc(C(N)=O)n2C` [Example 376, (R)-7-(7-Chloro-10-(3-(4-chloro-3,5-dimethylphenoxy)propyl)-6-(4,6-dimethylpyrimidin-5-yl)-4-methyl-1-oxo-3,4-dihydropyrazino[1,2-a]indol-2(1H)-yl)-1,5-dimethyl-1H-indole-2-carboxamide], at Mcl-1, the pKi is 8.19. Also, the GI50 in assay [1] (setting [2]) came to 750 nM.

As to `Cc1cc(OCCCc2c3n(c4c(-c5c(C)nn(C)c5C)c(Cl)ccc24)[C@H](C)CN(c2cccc4cc(C(N)=O)n(C)c24)C3=O)cc(C)c1Cl` [Example 377, (R)-7-(7-chloro-10-(3-(4-chloro-3,5-dimethylphenoxy)propyl)-4-methyl-1-oxo-6-(1,3,5-trimethyl-1H-pyrazol-4-yl)-3,4-dihydropyrazino[1,2-a]indol-2(1H)-yl)-1-methyl-1H-indole-2-carboxamide], the pKi at Mcl-1 was 8.31. The GI50 in assay [1] (read-out: GI50 on cellular proliferation of H929 human cancer cell lines, H929 cells, 72 h, Cell TiterGlo, 10% FBS) was 630 nM.

In the case of `COc1ccnc(Cn2c(C(=O)O)cc3cccc(N4C[C@@H](C)n5c(c(CCCOc6cc(C)c(Cl)c(C)c6)c6ccc(Cl)c(-c7c(C)nn(C)c7C)c65)C4=O)c32)c1` [Example 378, (R)-7-(7-Chloro-10-(3-(4-chloro-3,5-dimethylphenoxy)propyl)-4-methyl-1-oxo-6-(1,3,5-trimethyl-1H-pyrazol-4-yl)-3,4-dihydropyrazino[1,2-a]indol-2(1H)-yl)-1-((4-methoxypyridin-2-yl)methyl)-1H-indole-2-carboxylic acid], the pKi at Mcl-1 was 8.72. For the same compound, in assay [1] (setting [2]), the GI50 was 410 nM.

Turning to `Cc1cc(N2C[C@@H](C)n3c(c(CCCOc4cc(C)c(Cl)c(C)c4)c4ccc(Cl)c(-c5c(C)ncnc5C)c43)C2=O)c2c(c1)cc(C(N)=O)n2Cc1ccccn1` [Example 379, (R)-7-(7-chloro-10-(3-(4-chloro-3,5-dimethylphenoxy)propyl)-6-(4,6-dimethylpyrimidin-5-yl)-4-methyl-1-oxo-3,4-dihydropyrazino[1,2-a]indol-2(1H)-yl)-5-methyl-1-(pyridin-2-ylmethyl)-1H-indole-2-carboxamide], the pKi on Mcl-1 is 8.44. The GI50 in assay [1] (setting [2]) turned out to be 560 nM.

With `Cc1cc(OCCCc2c3n(c4c(-c5c(C)nn(C)c5C)c(Cl)ccc24)[C@H](C)CN(c2cccc4cc(C(=O)O)n(CC5(C)COC5)c24)C3=O)cc(C)c1Cl` [Example 380, (R)-7-(7-chloro-10-(3-(4-chloro-3,5-dimethylphenoxy)propyl)-4-methyl-1-oxo-6-(1,3,5-trimethyl-1H-pyrazol-4-yl)-3,4-dihydropyrazino[1,2-a]indol-2(1H)-yl)-1-((3-methyloxetan-3-yl)methyl)-1H-indole-2-carboxylic acid], on Mcl-1, the pKi was 8.10. In assay [1] (setting [2]), the GI50 was found to be 2500 nM.

As to `Cc1cccc(Cn2c(C(=O)O)cc3cccc(N4C[C@@H](C)n5c(c(CCCOc6cc(C)c(Cl)c(C)c6)c6ccc(Cl)c(-c7c(C)nn(C)c7C)c65)C4=O)c32)n1` [Example 381, (R)-7-(7-Chloro-10-(3-(4-chloro-3,5-dimethylphenoxy)propyl)-4-methyl-1-oxo-6-(1,3,5-trimethyl-1H-pyrazol-4-yl)-3,4-dihydropyrazino[1,2-a]indol-2(1H)-yl)-1-((6-methylpyridin-2-yl)methyl)-1H-indole-2-carboxylic acid], at Mcl-1, the pKi was 8.59. Besides, the GI50 in assay [1] (setting [2]) was determined as 250 nM.

`COc1ccc(Cn2c(C(=O)O)cc3cccc(N4C[C@@H](C)n5c(c(CCCOc6cc(C)c(Cl)c(C)c6)c6ccc(Cl)c(-c7c(C)nn(C)c7C)c65)C4=O)c32)nc1` [Example 382, (R)-7-(7-Chloro-10-(3-(4-chloro-3,5-dimethylphenoxy)propyl)-4-methyl-1-oxo-6-(1,3,5-trimethyl-1H-pyrazol-4-yl)-3,4-dihydropyrazino[1,2-a]indol-2(1H)-yl)-1-((5-methoxypyridin-2-yl)methyl)-1H-indole-2-carboxylic acid]: the pKi on Mcl-1 is 8.92. In addition, the GI50 in assay [1] (setting [2]) amounted to 750 nM.

Turning to `Cc1cc(OCCCc2c3n(c4c(-c5c(C)nn(C)c5C)c(Cl)ccc24)[C@H](C)CN(c2cccc4cc(C(=O)O)n(CC5COC5)c24)C3=O)cc(C)c1Cl` [Example 383, (R)-7-(7-Chloro-10-(3-(4-chloro-3,5-dimethylphenoxy)propyl)-4-methyl-1-oxo-6-(1,3,5-trimethyl-1H-pyrazol-4-yl)-3,4-dihydropyrazino[1,2-a]indol-2(1H)-yl)-1-(oxetan-3-ylmethyl)-1H-indole-2-carboxylic acid], on Mcl-1, the pKi was 8.59. Further, the GI50 in assay [1] (setting [2]) came out at 1500 nM.

Take `Cc1cc(OCCCc2c3n(c4c(-c5c(C)ncnc5C)c(Cl)ccc24)[C@H](C)CN(c2cccc4cc(C(N)=O)n(C)c24)C3=O)cc(C)c1Cl` [Example 384, (R)-7-(7-Chloro-10-(3-(4-chloro-3,5-dimethylphenoxy)propyl)-6-(4,6-dimethylpyrimidin-5-yl)-4-methyl-1-oxo-3,4-dihydropyrazino[1,2-a]indol-2(1H)-yl)-1-methyl-1H-indole-2-carboxamide]: the pKi on Mcl-1 was 8.17. The GI50 in assay [1] (setting [2]) is 910 nM.

In the case of `Cc1cc(OCCCc2c3n(c4c(-c5c(C)nn(C)c5C)c(Cl)ccc24)[C@H](C)CN(c2cccc4cc(C(N)=O)n(Cc5ccccn5)c24)C3=O)cc(C)c1Cl` [Example 385, (R)-7-(7-Chloro-10-(3-(4-chloro-3,5-dimethylphenoxy)propyl)-4-methyl-1-oxo-6-(1,3,5-trimethyl-1H-pyrazol-4-yl)-3,4-dihydropyrazino[1,2-a]indol-2(1H)-yl)-1-(pyridin-2-ylmethyl)-1H-indole-2-carboxamide], on Mcl-1, the pKi is 8.39. Also, the GI50 in assay [1] (setting [2]) stood at 510 nM.

On to `Cc1cc(OCCCc2c3n(c4c(-c5c(C)nn(C)c5C)c(Cl)ccc24)[C@H](C)CN(c2cccc4cc(C(=O)O)n(C(C)c5ccccn5)c24)C3=O)cc(C)c1Cl` (stereo partly drawn) [Example 386, 7-((R)-7-Chloro-10-(3-(4-chloro-3,5-dimethylphenoxy)propyl)-4-methyl-1-oxo-6-(1,3,5-trimethyl-1H-pyrazol-4-yl)-3,4-dihydropyrazino[1,2-a]indol-2(1H)-yl)-1-(1-(pyridin-2-yl)ethyl)-1H-indole-2-carboxylic acid], for which the pKi at Mcl-1 was 8.49. Besides, the GI50 in assay [1] (setting [2]) amounted to 3100 nM.

Regarding `Cc1cccnc1Cn1c(C(=O)O)cc2cccc(N3C[C@@H](C)n4c(c(CCCOc5cc(C)c(Cl)c(C)c5)c5ccc(Cl)c(-c6c(C)nn(C)c6C)c54)C3=O)c21` [Example 387, (R)-7-(7-Chloro-10-(3-(4-chloro-3,5-dimethylphenoxy)propyl)-4-methyl-1-oxo-6-(1,3,5-trimethyl-1H-pyrazol-4-yl)-3,4-dihydropyrazino[1,2-a]indol-2(1H)-yl)-1-((3-methylpyridin-2-yl)methyl)-1H-indole-2-carboxylic acid], the pKi at Mcl-1 is 8.68. Besides, in assay [1] (setting [2]), the GI50 stood at 3600 nM.

`Cc1cc(OCCCc2c3n(c4c(-c5c(C)nn(C)c5C)c(Cl)ccc24)[C@H](C)CN(c2cn(C)c4ccc(-c5ccn(C)n5)cc24)C3=O)cc(C)c1Cl` [Example 388, (R)-7-Chloro-10-(3-(4-chloro-3,5-dimethylphenoxy)propyl)-4-methyl-2-(1-methyl-5-(1-methyl-1H-pyrazol-3-yl)-1H-indol-3-yl)-6-(1,3,5-trimethyl-1H-pyrazol-4-yl)-3,4-dihydropyrazino[1,2-a]indol-1(2H)-one]: at Mcl-1, the pKi is 8.82. Moreover, the GI50 in assay [1] (setting [2]) was 330 nM.

On to `Cc1cc(OCCCc2c3n(c4c(-c5c(C)nn(C)c5C)c(Cl)ccc24)[C@H](C)CN(c2cn(C)c4ccc(-c5ccccn5)cc24)C3=O)cc(C)c1Cl` [Example 389, (R)-7-Chloro-10-(3-(4-chloro-3,5-dimethylphenoxy)propyl)-4-methyl-2-(1-methyl-5-(pyridin-2-yl)-1H-indol-3-yl)-6-(1,3,5-trimethyl-1H-pyrazol-4-yl)-3,4-dihydropyrazino[1,2-a]indol-1(2H)-one], for which, on Mcl-1, the pKi is above 9.00. Besides, in assay [1] (setting [2]), the GI50 came out at 1500 nM.
